This note sets out measurements from patent US20240261274A1, “TREATMENT OF MYC-DRIVEN CANCERS WITH GSPT1 DEGRADERS” (MONTE ROSA THERAPEUTICS, INC., priority 2021, published 2024).

Experiment [1] has as its target GSPT1 (Homo sapiens, UniProt P15170+Q96SW2). In words: GSPT1 degradation by immunoblotting in cancer cell lines (Compound 345). Format: cell-based. Also noted: endogenous in cells; host or cells: MM1 S (ATCC CRL-2974). Conditions: for GSPT1 degradation (immunoblots): 0.03, 0.3, 3 μM; for DC50: read-out: GSPT1 DC50. As for the experimental part:
Two high N-Myc expressing NSCLC cell lines (NCI-H155 and ABC-1) and two low N-Myc expressing NSCLC cell lines (NCI-H2023 and NCI-H441) were treated with Compound 345 in culture. Cells were treated with increasing concentrations of the compound (0.0; 0.00064; 0.0032; 0.016; 0.08; 0.4; 2.0; 10; and 30 nM), lysates were prepared, SDS-PAGE and immunoblotting was performed, and transfer membranes were probed for GSPT1 and GAPDH as a loading control. Expression levels of GSPT1 detected in the immunoblots of this experiment are plotted against concentration of Compound 345 in FIG. 10B. DC50 values (the concentration of the compound at which the target protein is degraded by 50%) were estimated for each cell line. NCI-H155, DC50=14 nM; ABC-1, DC50=76 nM; NCI-H2023, DC50=18 nM; NCI-H441, DC50=8.7 nM. Estimated Dmax for all cell lines was 95%-99%.
GSPT1 and N-Myc western blotting analyses from cell line lysates: NCI-H1155, NCI-H2023, NCI-H441, ABC-1, NCI-H1836, NCI-H1876, MM.1S, DOHH2 and WSU-DLCLC2 cells were typically seeded in a 6 or 12 well plate (0.3 to 1.0×10^6 cells/mL) and incubated overnight. Compound 345 was dissolved in DMSO to obtain a 10 mM stock solution, and aliquots were stored at −20° C. The next day, cells were treated with various concentrations of Compound 345 or DMSO (Sigma, D2650) using a HP D300 dispenser (Tecan). Controls were pretreated for 30 minutes with Bortezomib (0.2 μM). Cells were washed with ice cold PBS at the indicated timepoints post addition of Compound 345 and lysed with 50 to 100 μL lysis buffer containing RIPA buffer (Invitrogen, R0278) and a mix of protease inhibitor cocktail (Sigma, P8340, 5726 and 0044). Protein concentration was assessed using the BCA assay (Pierce™ Rapid Gold BCA Protein Assay Kit, A53227) and 10 μg of protein was typically loaded onto a TGX Stain free 4-20% Criterion gel (Biorad, 5678095) for separation. Gel was transferred onto a 0.2 μm nitrocellulose membrane using the TransBlot transfer system (Biorad). Membranes were blocked in Every Blot Blocking Buffer (Biorad, 12010020) and incubated overnight at 4° C. with either of the following primary antibody: anti-GSPT1 diluted 1/5000th (Sigma, HPA052488), anti-N-Myc clone D1V2A diluted 1/1000th (Cell Signaling Technology, 84406), anti-α-Tubulin clone DM1A Alexa Fluor® 488 Conjugated (Cell Signaling Technology, Cat. No. CST8058) or anti-GAPDH Alexa647-coupled diluted 1/2500th (Invitrogen, MA5-15738-A647). The next day, a secondary HRP-conjugated goat anti-rabbit secondary antibody (Invitrogen, A16110) was used to allow detection of unlabelled primary antibodies. Membranes were imaged on a ChemiDoc imager (Biorad) using either fluorescence or chemiluminescence detection. Images were quantified using the Image Lab Software Version 6.1 (Biorad). Images were adjusted for alignment and contrast. Columns were manually defined to enable the band detection by the software. Band intensities, or densitometries, were exported to Excel (Microsoft® Excel® for Microsoft 365 MSO Version 2110) for further analysis. Briefly, band intensity for the protein of interest was normalized to the DMSO control, before being normalized to the GAPDH band intensity for the same column. Normalised data was transferred to GraphPad Prism 8.1.2 (GraphPad) and fitted using a four parameters models ([Inhibitor] vs. response—Variable slope) defined by the following equation: Y=Dmax+(Top−Dmax)/(1+(DC50/X)^HillSlope). Key degradation parameters reported included DC50 (concentration at which the GSPT1 total protein levels are reduced by 50%) and Dmax (maximum fractional amount of protein degraded).
Background: In western blotting, separated proteins are transferred to a membrane and probed.

For experiment [2], the system named is MM1 S cells. Description: Apoptosis assay, caspase 3/7 activity in MM1 S cells. The conditions noted are these: 0 to 30 μM, 48 hours. Format: cell-based. As for the experimental part:
For the same MM cell line, the effect of Compound 345 on apoptosis was evaluated. MM1 S cells were treated with Compound 345 in culture at increasing concentrations ranging from 0 to 30 μM and a control group was treated with lenalidomide, a well-known MM drug. After 48 hours, fold-change caspase 3/7 activity (a marker of apoptosis) was measured and plotted against concentration of Compound 345 compared to lenalidomide as the control. […] For the same MM cell line, the impact of Compound 345 on cell viability was evaluated. MM1 S cells were treated with Compound 345 in culture at increasing concentrations ranging from 0 to 100 μM. Cell viability was measured as a percentage survival after 72 hours.
Apoptosis assay: MM1S cells were sub-cultures as recommended by the providers (ATCC, DSMZ) and incubated at 37° C., 5% CO2. Briefly, cells were seeded in white 96-well plates (100 μL/well) at a density of 50000 cells/well and incubated overnight at 37° C. with 5% CO2. […] Cell apoptosis was assessed using the Caspase-Glo® 3/7 Assay kit as recommended by the manufacturer (Promega, Cat. No. G8091, Lot. No. 0000385738) and measurements were performed on the EnSpire multimode plate reader (Perkin Elmer). EC50 values were determined using Prism8.1.2 (GraphPad) and the asymmetric (five-parameter) equation and least squares fit.

Setting [3] is: MM1 S multiple myeloma cells, 24 hours.

Molecules are shown by their SMILES. Where two headings read alike, the source gives them in different places.

Chain of GSPT1 (P15170 whole entry): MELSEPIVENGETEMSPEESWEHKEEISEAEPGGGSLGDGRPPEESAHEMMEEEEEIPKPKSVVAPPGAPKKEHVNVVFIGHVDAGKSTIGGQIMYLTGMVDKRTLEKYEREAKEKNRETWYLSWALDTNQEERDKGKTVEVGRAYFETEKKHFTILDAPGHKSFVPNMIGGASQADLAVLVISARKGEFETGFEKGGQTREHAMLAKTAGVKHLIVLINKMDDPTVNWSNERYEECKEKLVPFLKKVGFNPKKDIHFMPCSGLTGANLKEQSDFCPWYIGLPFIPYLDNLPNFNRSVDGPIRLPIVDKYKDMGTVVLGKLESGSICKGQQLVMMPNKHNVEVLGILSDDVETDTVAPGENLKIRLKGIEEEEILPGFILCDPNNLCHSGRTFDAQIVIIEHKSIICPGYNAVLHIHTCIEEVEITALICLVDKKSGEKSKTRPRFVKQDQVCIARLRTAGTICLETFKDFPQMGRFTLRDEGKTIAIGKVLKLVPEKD
Chain of GSPT1 (Q96SW2 whole entry): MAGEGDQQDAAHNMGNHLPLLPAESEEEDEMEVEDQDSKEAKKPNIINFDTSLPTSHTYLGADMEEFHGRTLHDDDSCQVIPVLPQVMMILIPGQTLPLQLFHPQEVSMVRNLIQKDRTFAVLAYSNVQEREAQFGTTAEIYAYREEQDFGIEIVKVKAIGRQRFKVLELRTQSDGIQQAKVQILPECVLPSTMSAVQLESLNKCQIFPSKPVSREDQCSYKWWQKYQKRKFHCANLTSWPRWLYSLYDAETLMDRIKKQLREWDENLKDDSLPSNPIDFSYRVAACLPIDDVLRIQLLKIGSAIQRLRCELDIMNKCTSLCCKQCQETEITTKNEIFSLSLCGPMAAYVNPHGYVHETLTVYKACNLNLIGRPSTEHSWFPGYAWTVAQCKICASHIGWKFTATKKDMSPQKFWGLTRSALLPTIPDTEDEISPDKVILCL
Chain of GSPT1 (Q16531 whole entry partner): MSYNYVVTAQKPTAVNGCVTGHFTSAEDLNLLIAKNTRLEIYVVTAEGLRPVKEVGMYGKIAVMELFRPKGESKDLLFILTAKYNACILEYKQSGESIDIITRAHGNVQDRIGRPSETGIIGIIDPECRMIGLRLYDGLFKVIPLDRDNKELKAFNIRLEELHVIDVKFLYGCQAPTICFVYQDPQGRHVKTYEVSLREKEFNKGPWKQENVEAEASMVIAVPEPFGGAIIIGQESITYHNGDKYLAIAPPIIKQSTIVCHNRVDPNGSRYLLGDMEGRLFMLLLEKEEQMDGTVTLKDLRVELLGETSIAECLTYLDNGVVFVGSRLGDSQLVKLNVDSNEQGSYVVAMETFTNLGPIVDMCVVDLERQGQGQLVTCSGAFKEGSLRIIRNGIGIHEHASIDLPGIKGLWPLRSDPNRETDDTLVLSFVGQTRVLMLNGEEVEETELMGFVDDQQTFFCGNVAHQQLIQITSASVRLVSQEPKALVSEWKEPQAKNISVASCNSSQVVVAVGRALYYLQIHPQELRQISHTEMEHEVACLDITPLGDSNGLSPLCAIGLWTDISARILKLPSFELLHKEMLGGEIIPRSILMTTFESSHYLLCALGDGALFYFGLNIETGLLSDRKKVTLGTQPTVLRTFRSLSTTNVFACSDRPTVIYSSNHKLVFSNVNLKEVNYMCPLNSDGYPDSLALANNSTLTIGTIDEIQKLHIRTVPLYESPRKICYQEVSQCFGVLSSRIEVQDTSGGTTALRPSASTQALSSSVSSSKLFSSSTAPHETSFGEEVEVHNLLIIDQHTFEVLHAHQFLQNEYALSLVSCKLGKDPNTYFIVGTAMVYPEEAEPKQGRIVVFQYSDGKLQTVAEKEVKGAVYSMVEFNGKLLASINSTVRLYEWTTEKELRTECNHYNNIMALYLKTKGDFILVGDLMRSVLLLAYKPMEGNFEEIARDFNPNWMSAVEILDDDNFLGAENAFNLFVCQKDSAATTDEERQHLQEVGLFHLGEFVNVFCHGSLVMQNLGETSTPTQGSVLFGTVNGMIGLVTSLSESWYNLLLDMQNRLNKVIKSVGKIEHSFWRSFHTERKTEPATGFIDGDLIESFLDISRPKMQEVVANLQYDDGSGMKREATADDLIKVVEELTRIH

On to `O=C1CCC(N2Cc3ccc(COC(=O)Nc4cc(OC(F)(F)F)ccc4F)cc3C2=O)C(=O)N1` (stereo not drawn) [Compound 345, (2-(2,6-dioxopiperidin-3-yl)-3-oxoisoindolin-5-yl)methyl(2-fluoro-5-(trifluoromethoxy)phenyl)carbamate], for which the greatest degradation seen (Dmax) (as a rule, the greatest extent of degradation seen) in experiment [1] (setting [3]) is 100%; in experiment [1] (WSUDLCL2, WSU-DLCL2 triple hit lymphoma cells, 24 hours), 100%; in experiment [1] (all cell lines (NCI-H155, ABC-1, NCI-H2023, NCI-H441)), 95 to 99%. Also, the “GSPT1 degradation (immunoblots)” value is “efficient degradation of GSPT1 in a time and dose dependent manner” in experiment [1] (NCI-H155 and NCI-H2023, 0, 2, 6 hours); “efficient degradation of GSPT1 in SCLC cell lines in a time and dose dependent manner” in experiment [1] (SCLC cell lines NCI-H1836 and NCI-H1876, up to 24 hours). Also, the DC50 (usually the concentration giving 50% degradation) stood at 76 nM in experiment [1] (ABC-1 (high N-Myc NSCLC)); 6 nM in experiment [1] (setting [3]); 14 nM in experiment [1] (NCI-H155 (high N-Myc NSCLC)); 8.7 nM in experiment [1] (NCI-H441 (low N-Myc NSCLC)); 18 nM in experiment [1] (NCI-H2023 (low N-Myc NSCLC)); 24 nM in experiment [1] (WSU-DLCL2 triple hit lymphoma cells, 24 hours). For the same molecule, the “fold-change caspase 3/7 activity (apoptosis)” value in experiment [2] is “strong induction of apoptosis”.
